Common to all, as to assay type: cell-based
Assay [1] has as its target T1, hTLR7 (human Toll-like receptor 7) (Homo sapiens, UniProt Q9NYK1).
T1 construct: host or cells: HEK-Blue hTLR7 (HEK293-derived reporter cells)
T1 sequence (Q9NYK1 27-1049): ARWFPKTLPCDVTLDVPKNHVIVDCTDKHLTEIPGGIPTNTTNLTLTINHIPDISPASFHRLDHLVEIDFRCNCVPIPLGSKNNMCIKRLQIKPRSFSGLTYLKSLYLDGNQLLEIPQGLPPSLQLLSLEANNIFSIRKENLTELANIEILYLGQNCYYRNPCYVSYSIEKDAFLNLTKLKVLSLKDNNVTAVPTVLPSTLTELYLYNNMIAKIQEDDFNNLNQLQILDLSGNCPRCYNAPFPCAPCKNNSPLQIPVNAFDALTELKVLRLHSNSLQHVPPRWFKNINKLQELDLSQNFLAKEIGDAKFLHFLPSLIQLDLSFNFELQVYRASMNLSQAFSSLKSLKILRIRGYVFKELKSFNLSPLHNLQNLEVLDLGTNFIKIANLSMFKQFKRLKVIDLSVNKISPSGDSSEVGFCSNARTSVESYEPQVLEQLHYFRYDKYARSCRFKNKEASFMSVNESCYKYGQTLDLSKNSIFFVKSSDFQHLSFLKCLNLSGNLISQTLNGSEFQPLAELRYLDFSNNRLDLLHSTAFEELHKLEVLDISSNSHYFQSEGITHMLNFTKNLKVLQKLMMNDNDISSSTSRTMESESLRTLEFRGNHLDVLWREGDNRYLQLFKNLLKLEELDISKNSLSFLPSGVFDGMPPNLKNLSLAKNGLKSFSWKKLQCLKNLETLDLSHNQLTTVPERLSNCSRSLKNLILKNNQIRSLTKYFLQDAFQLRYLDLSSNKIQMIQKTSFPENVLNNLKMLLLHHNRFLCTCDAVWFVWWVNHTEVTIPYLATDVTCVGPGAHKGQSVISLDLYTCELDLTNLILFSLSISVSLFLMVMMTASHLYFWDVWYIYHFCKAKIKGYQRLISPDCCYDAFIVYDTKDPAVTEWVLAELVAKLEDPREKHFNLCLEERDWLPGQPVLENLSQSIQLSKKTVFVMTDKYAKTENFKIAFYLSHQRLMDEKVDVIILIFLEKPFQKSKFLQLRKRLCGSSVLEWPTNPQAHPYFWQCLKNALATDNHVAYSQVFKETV
Nature of the assay: hTLR7 cell assay (HEK-Blue hTLR7 reporter cells). The conditions noted are these: 24 hours, OD 650 nm. A digest of the protocol: (§1)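 HEK-Blue reporter cells in HEK-Blue Detection medium (50000 cells/mL) were exposed to test compounds for 24 hours at 37° C, 5% CO2. Agonism was read from supernatant incubated 1 hour at 37° C with QUANTI-Blue, measured as optical density at 650 nm.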

In assay [2] the target is T2, hTLR8 (human Toll-like receptor 8) (Homo sapiens, UniProt Q9NR97).
T2 construct: host or cells: HEK-Blue hTLR8 (HEK293-derived reporter cells)
T2 sequence (Q9NR97 27-1041): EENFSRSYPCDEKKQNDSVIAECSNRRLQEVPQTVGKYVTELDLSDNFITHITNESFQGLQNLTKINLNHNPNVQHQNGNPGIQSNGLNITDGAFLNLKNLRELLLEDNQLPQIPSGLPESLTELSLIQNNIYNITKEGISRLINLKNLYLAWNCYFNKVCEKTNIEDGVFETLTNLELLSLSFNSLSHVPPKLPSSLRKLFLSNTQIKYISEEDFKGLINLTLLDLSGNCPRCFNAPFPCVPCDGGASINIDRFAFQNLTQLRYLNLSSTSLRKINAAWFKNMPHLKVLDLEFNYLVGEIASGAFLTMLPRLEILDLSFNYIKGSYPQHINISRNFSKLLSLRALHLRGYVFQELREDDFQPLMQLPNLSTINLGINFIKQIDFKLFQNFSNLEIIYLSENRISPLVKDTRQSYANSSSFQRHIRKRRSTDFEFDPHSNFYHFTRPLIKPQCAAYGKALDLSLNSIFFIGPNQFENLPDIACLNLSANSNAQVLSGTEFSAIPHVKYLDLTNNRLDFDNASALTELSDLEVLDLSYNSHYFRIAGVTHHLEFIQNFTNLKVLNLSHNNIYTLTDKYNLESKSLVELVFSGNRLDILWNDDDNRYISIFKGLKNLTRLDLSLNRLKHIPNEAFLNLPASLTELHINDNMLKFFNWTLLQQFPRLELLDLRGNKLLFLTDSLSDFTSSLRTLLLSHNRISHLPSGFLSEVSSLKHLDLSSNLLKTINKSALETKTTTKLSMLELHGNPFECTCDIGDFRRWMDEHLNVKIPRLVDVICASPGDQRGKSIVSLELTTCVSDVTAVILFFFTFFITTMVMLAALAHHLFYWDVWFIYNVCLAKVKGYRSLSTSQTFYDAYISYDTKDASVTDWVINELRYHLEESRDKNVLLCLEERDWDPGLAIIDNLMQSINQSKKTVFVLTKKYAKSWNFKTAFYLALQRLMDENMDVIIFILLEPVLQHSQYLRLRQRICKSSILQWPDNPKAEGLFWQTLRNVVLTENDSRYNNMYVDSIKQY
Put plainly: hTLR8 cell assay (HEK-Blue hTLR8 reporter cells). Particulars: 24 hours, OD 650 nm. Summed up:
as §1

The subject of assay [3] is human PBMC (human peripheral blood mononuclear cells). Nature of the assay: PBMC screening assay: induction of TNF-α production. The conditions noted are these: read-out: EC50 (μM) TNF-α (hPBMC). How it is done:
The payload compounds of Formula (II′) were assayed to evaluate the induction of TNF-α production in human PBMC (human peripheral blood mononuclear cells).
Human peripheral blood mononuclear cells (PBMC) were obtained from Allcells. […] PBMC were incubated for 24 hours at 37° C. in a 5% CO2 humidified incubator. The following day PBMC plates were centrifuged at 500×g for 5 minutes and the growth media was removed. 200 μL of compound prepared in growth media at a series of diluted concentrations ranging from 2.54 nM to 50 μM were added to PBMC in duplicate and incubated for 24 hours at 37° C. in a 5% CO2 incubator. Prior to supernatant harvest, cells were spun at 500×g for 5 minutes to remove cell debris. TNF-α activity was assessed in the supernatant by ELISA (Elabscience) per the manufacturer's instructions. Optical density at 450 nm (ELISA) was analyzed using a plate reader.

Setting [4] is: human PBMC, 24 hours, TNF-α by ELISA, class symbols.

SMILES strings stand for the structures. pEC50: −log10 of the molar value. Where two headings read alike, the source gives them in different places.

As to `CCCCc1nc2c(N)nc3cc(Cc4ccc5c(c4)CNCC5)ccc3c2n1CC(C)(C)O` [Compound 60, 1-(4-amino-2-butyl-7-((1,2,3,4-tetrahydroisoquinolin-7-yl)methyl)-1H-imidazo[4,5-c]quinolin-1-yl)-2-methylpropan-2-ol], the values for the pEC50 in assay [1] and in assay [2] were greater than 6.00 and greater than 5.30, respectively. Also, the EC50 (commonly the concentration needed to bring the measured effect to its halfway point) in assay [3] (setting [4]) was less than 0.64 µM.
For the molecule `CCOCc1nc2c(N)nc3cc(Cc4ccccc4)ccc3c2n1CC1(OCCN)CC1` [Compound 44], the pEC50 – broadly, −log10 of the EC50, conventionally taken in molar units – in assay [1] was 5.00 to 6.00; in assay [2], greater than 5.30. Also, the EC50 in assay [3] (Homo sapiens, PBMC, 24 h) is greater than 0.64 µM.
As to `CCCCc1nc2c(N)nc3cc(Cc4ccc5c(c4)CCNC5)ccc3c2n1CC(C)(C)O` [Compound 59, 1-(4-amino-2-butyl-7-((1,2,3,4-tetrahydroisoquinolin-6-yl)methyl)-1H-imidazo[4,5-c]quinolin-1-yl)-2-methylpropan-2-ol], the pEC50 is greater than 6.00 in assay [1] and greater than 5.30 in assay [2]. Besides, the half-maximal effective concentration (EC50) in assay [3] (setting [4]) was less than 0.64 µM.
On the same counts, the results for `CCCCc1nc2c(N)nc3cc(Cc4cccc(CCN)c4)ccc3c2n1CC(C)(C)O` [Compound 17, 1-(4-amino-7-(3-(2-aminoethyl)benzyl)-2-butyl-1H-imidazo[4,5-c]quinolin-1-yl)-2-methylpropan-2-ol] are greater than 6.00, greater than 5.30 and greater than 0.64 µM.
For `CCCCc1nc2c(N)nc3cc(Cc4cccc(OCCN)c4)ccc3c2n1CC(C)(C)O` [Compound 62, 1-(4-amino-7-(3-(2-aminoethoxy)benzyl)-2-butyl-1H-imidazo[4,5-c]quinolin-1-yl)-2-methylpropan-2-ol] the same measures were greater than 6.00, greater than 5.30 and less than 0.64 µM.
On the same counts, the results for `CCCCc1nc2c(N)nc3cc(Cc4ccc5c(c4)CC(N)CC5)ccc3c2n1CC(C)(C)O` (stereo not drawn) [Compound 58, 1-(4-amino-7-((7-amino-5,6,7,8-tetrahydronaphthalen-2-yl)methyl)-2-butyl-1H-imidazo[4,5-c]quinolin-1-yl)-2-methylpropan-2-ol] are greater than 6.00, greater than 5.30 and less than 0.64 µM.
As for `CCCCc1nc2c(N)nc3cc(Cc4cccc(NC(=O)CN)c4)ccc3c2n1CC(C)(C)O` [Compound 65, 2-amino-N-(3-((4-amino-2-butyl-1-(2-hydroxy-2-methylpropyl)-1H-imidazo[4,5-c]quinolin-7-yl)methyl)phenyl)acetamide], the values for the pEC50 in assay [1] and in assay [2] were 5.00 to 6.00 and greater than 5.30, respectively. Moreover, the EC50 in assay [3] (setting [4]) is less than 0.64 µM.
On the same counts, the results for `CCOCc1nc2c(N)nc3cc(Cc4ccc(F)c(CN)c4)ccc3c2n1CC(C)(C)O` [Compound 149] are greater than 6.00, greater than 5.30 and less than 0.64 µM.
For `CCCCc1nc2c(N)nc3cc(Cc4cccc(CNC)c4)ccc3c2n1CC(C)(C)O` [Compound 20, 1-(4-amino-2-butyl-7-(3-((methylamino)methyl)benzyl)-1H-imidazo[4,5-c]quinolin-1-yl)-2-methylpropan-2-ol] the same measures were greater than 6.00, greater than 5.30 and less than 0.64 µM.
For `CCOCc1nc2c(N)nc3cc(Cc4ccccc4)ccc3c2n1CC(C)(C)OCCN` [Compound 23, 1-(2-(2-aminoethoxy)-2-methylpropyl)-7-benzyl-2-(ethoxymethyl)-1H-imidazo[4,5-c]quinolin-4-amine] the same measures were 5.00 to 6.00, greater than 5.30 and greater than 0.64 µM.
On to `CC(C)(O)Cn1c(CC2CC2)nc2c(N)nc3cc(Cc4cccc(CN)c4)ccc3c21` [Compound 54, 1-(4-amino-7-(3-(aminomethyl)benzyl)-2-(cyclopropylmethyl)-1H-imidazo[4,5-c]quinolin-1-yl)-2-methylpropan-2-ol], for which the pEC50 in assay [1] was greater than 6.00; in assay [2], greater than 5.30. In addition, in assay [3] (setting [4]), the EC50 is greater than 0.64 µM.
Turning to `CCOCc1nc2c(N)nc3cc(Cc4cc(CN)ccc4F)ccc3c2n1CC(C)(C)O` [Compound 148, 1-(4-amino-7-(5-(aminomethyl)-2-fluorobenzyl)-2-(ethoxymethyl)-1H-imidazo[4,5-c]quinolin-1-yl)-2-methylpropan-2-ol], the pEC50 is greater than 6.00 in assay [1] and greater than 5.30 in assay [2]. For the same molecule, the EC50 in assay [3] (setting [4]) was less than 0.64 µM.
On to `CC(C)(O)Cn1c(COC2CC2)nc2c(N)nc3cc(Cc4cccc(CN)c4)ccc3c21` [Compound 55, 1-(4-amino-7-(3-(aminomethyl)benzyl)-2-(cyclopropoxymethyl)-1H-imidazo[4,5-c]quinolin-1-yl)-2-methylpropan-2-ol], for which the pEC50 is greater than 6.00 in assay [1] and greater than 5.30 in assay [2]. Moreover, in assay [3] (setting [4]), the EC50 is less than 0.64 µM.
Regarding `CCCCc1nc2c(N)nc3cc(Cc4ccc5c(c4)C(N)CC5)ccc3c2n1CC(C)(C)O` (stereo not drawn) [Compound 61, 1-(4-amino-7-((3-amino-2,3-dihydro-1H-inden-5-yl)methyl)-2-butyl-1H-imidazo[4,5-c]quinolin-1-yl)-2-methylpropan-2-ol], the pEC50 is greater than 6.00 in assay [1] and greater than 5.30 in assay [2]. The EC50 in assay [3] (setting [4]) was less than 0.64 µM.
On the same counts, the results for `CCCCc1nc2c(N)nc3cc(Cc4ccccc4CN)ccc3c2n1CC(C)(C)O` [Compound 71, 1-(4-amino-7-(2-(aminomethyl)benzyl)-2-butyl-1H-imidazo[4,5-c]quinolin-1-yl)-2-methylpropan-2-ol] are 5.00 to 6.00, greater than 5.30 and greater than 0.64 µM.
Take `CCOCc1nc2c(N)nc3cc(Cc4cccc(CN)c4)ccc3c2n1CC(C)(C)O` [Compound 4, 1-(4-amino-7-(3-(aminomethyl)benzyl)-2-(ethoxymethyl)-1H-imidazo[4,5-c]quinolin-1-yl)-2-methylpropan-2-ol]: the pEC50 in assay [1] is greater than 6.00; in assay [2], greater than 5.30. The EC50 in assay [3] (Homo sapiens, PBMC, 24 h) was greater than 0.64 µM.

The record behind these values is patent US20250325687A1, “CONJUGATE COMPRISING TOLL-LIKE RECEPTOR AGONIST” (MABSOFT THERAPEUTICS (SHANGHAI) CO., LTD., priority 2022, published 2025).
